The subject of this assay is L1210 leukemia ip in BDF1 mice, survival T/C. The experiment in a line: NCI In Vivo Anticancer Drug Screen. Data for tumor model L1210 Leukemia (intraperitoneal) in B6D2F1 (BDF1) mice. The following applies: endpoint: mean survival time, higher = longer survival. Summed up:
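Each compound was tested against a transplantable tumor grown in mice. The endpoint was survival, with treated animals benchmarked against vehicle controls as a simple ratio.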

[1] abbreviates: dose: 100.0 mg/kg/injection, schedule: Q01DX009 (ip), vehicle: saline.

Structures are written as SMILES. Several values for one entry are separate records, joined by “and”; a condition that tells them apart may be missing. Equal entries are not always repeated. Inconclusive results and toxic doses are left out.

In the case of `Cc1ccc(C(=O)OCC2OC(n3cnc4c(=S)nc(N)[nH]c43)C(OC(=O)c3ccc(C)cc3)C2OC(=O)c2ccc(C)cc2)cc1` (centres undefined), the T/C (dose: 100.0 mg/kg/injection, schedule: Q01DX001 (ip), vehicle: saline) was 95 % of control; the T/C under setting [1] was 106 % of control; the T/C (dose: 200.0 mg/kg/injection, schedule: Q01DX001 (ip), vehicle: saline) is 101 % of control; the T/C (dose: 200.0 mg/kg/injection, schedule: Q01DX009 (ip), vehicle: saline) was 112 % of control; the T/C (dose: 400.0 mg/kg/injection, schedule: Q01DX001 (ip), vehicle: carboxymethylcellulose (CMC)) was 111 % of control; the T/C (dose: 400.0 mg/kg/injection, schedule: Q01DX001 (ip), vehicle: saline) was 106 % of control. The T/C by setting is: (dose: 400.0 mg/kg/injection, schedule: Q01DX009 (ip), vehicle: saline) 116 % of control; (dose: 600.0 mg/kg/injection, schedule: Q01DX001 (ip), vehicle: carboxymethylcellulose (CMC)) 105 % of control; (dose: 800.0 mg/kg/injection, schedule: Q01DX001 (ip), vehicle: carboxymethylcellulose (CMC)) 119 % of control; (dose: 800.0 mg/kg/injection, schedule: Q01DX009 (ip), vehicle: saline) 172 % of control; (dose: 1000.0 mg/kg/injection, schedule: Q01DX001 (ip), vehicle: carboxymethylcellulose (CMC)) 116 % of control.
As to `C=C(CSCC(N)=O)c1ccccc1`, the T/C was 97 % of control (dose: 100.0 mg/kg/injection, schedule: Q04DX002 (ip), vehicle: Klucel (hydroxypropylcellulose) (HPC)); 97 % of control (dose: 200.0 mg/kg/injection, schedule: Q04DX002 (ip), vehicle: Klucel (hydroxypropylcellulose) (HPC)); 94 % of control (dose: 400.0 mg/kg/injection, schedule: Q04DX002 (ip), vehicle: Klucel (hydroxypropylcellulose) (HPC)).
With `Cc1ccc(S(=O)(=O)OCCN2C(=O)NC(c3ccccc3)(c3ccccc3)C2=O)cc1`, the T/C (dose: 3.1 mg/kg/injection, schedule: Q01DX009 (ip), vehicle: saline) is 104 % of control; the T/C (dose: 6.25 mg/kg/injection, schedule: Q01DX009 (ip), vehicle: saline) is 100 % of control; the T/C (dose: 12.5 mg/kg/injection, schedule: Q01DX009 (ip), vehicle: saline) was 104 % of control; the T/C (dose: 25.0 mg/kg/injection, schedule: Q01DX009 (ip), vehicle: saline) was 98 % of control; the T/C (dose: 50.0 mg/kg/injection, schedule: Q01DX009 (ip), vehicle: saline) was 100 % of control; the T/C under setting [1] is 102 % of control. The T/C runs as follows: (dose: 150.0 mg/kg/injection, schedule: Q04DX003 (ip), vehicle: saline with Tween-80) 109 % of control; (dose: 225.0 mg/kg/injection, schedule: Q04DX003 (ip), vehicle: saline with Tween-80) 109 % of control; (dose: 335.0 mg/kg/injection, schedule: Q04DX003 (ip), vehicle: saline with Tween-80) 98 % of control.
With `N#CC1(c2ccccc2)CC(C(=O)c2ccccc2)C(O)(c2ccccc2)CC1c1ccccc1` (centres undefined), the T/C was 101 % of control (dose: 50.0 mg/kg/injection, schedule: Q01DX009 (ip), vehicle: saline with Tween-80); 108 % of control (dose: 100.0 mg/kg/injection, schedule: Q01DX009 (ip), vehicle: saline with Tween-80); 101 % of control (dose: 200.0 mg/kg/injection, schedule: Q01DX009 (ip), vehicle: saline with Tween-80).
Turning to `CC(C)CCCC(C)C1CCC2C3CCC45CC4C(=O)CCC5(C)C3CCC12C` (centres undefined), the T/C is, setting by setting: (dose: 100.0 mg/kg/injection, schedule: Q01DX009 (ip), vehicle: acetone) 87 % of control and 96 % of control; (dose: 200.0 mg/kg/injection, schedule: Q01DX009 (ip), vehicle: acetone) 103 % of control; (dose: 400.0 mg/kg/injection, schedule: Q01DX009 (ip), vehicle: acetone) 89 % of control and 94 % of control.

The values above are taken from PubChem BioAssay AID248 (DTP/NCI, 2004).
